For the assay, the target named is T1, Pfu-SRP54 (Pyrococcus furiosus, UniProt Q8U070).
T1 construct: full-length, pET28b, thrombin-cleavable His6 tag removed, E. coli BL21(DE3)-Rosetta2; free of SRP RNA and SRP19; two monomers per asymmetric unit (non-crystallographic dimer); finger loop L346-I365 disordered
T1 sequence (Q8U070 1-443): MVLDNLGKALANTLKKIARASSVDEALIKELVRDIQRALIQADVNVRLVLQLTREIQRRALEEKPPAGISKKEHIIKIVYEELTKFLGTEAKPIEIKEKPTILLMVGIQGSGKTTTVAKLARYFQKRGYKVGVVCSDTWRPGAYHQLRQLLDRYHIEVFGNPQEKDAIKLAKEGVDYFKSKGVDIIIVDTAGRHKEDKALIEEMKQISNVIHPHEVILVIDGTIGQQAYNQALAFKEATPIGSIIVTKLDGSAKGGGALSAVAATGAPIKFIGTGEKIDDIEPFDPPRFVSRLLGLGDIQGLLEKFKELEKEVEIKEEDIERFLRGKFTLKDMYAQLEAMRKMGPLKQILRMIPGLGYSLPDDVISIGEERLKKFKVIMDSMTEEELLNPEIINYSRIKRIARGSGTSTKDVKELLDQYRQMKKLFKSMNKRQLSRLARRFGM
Put plainly: X-ray crystal structure, […] Å. The format is binding. The conditions noted are these: co-crystallised with 10 mM GDP; 1.0-1.3 M lithium sulfate, 100 mM sodium acetate pH 5.0; room temperature; GTPase active site in G domain, no clear Mg ion.

The values below come from publication PMC2568955, “Structures of SRP54 and SRP19, the Two Proteins that Organize the Ribonucleic Core of the Signal Recognition Particle from Pyrococcus furiosus” (PLoS ONE, 2008).

`Nc1nc2c(ncn2[C@@H]2O[C@H](COP(=O)(O)OP(=O)(O)O)[C@@H](O)[C@H]2O)c(=O)[nH]1` [GDP]: the “X-ray crystal structure, 2.5 Å” value is “Pfu-SRP54 was co-crystallized in presence of GDP, and the nucleotide is clearly identified”.
